Laboratory results taken from US11576905B2, “Topical semisolid composition containing an antimicrobial agent and pirfenidone for the treatment of chronic skin damage” (Excalibur Pharmaceuticals, Inc., priority 2017, dated 2023).

Experiments:
TGFβ1 = TGFβ1 gene expression in ulcer tissue biopsies of treated patients; format: in vivo, human; details: first month of treatment
COL1α = COL1α gene expression in ulcer tissue biopsies of treated patients; format: in vivo, human; details: first month of treatment

`O=C(c1ccc(F)cc1)C1CCN(CCn2c(=O)[nH]c3ccccc3c2=O)CC1` [KTS, Ketanserin] was tested, and the “Patients showing an increase in TGFβ1 gene expression” value (TGFβ1) was 29% and the “Patients showing an increase in COL1α expression” value (COL1α) was 43%.
